Earlier results as cited in patent US20080139497A1, “Use of ATP in controlled regional reperfusion as treatment during acute myocardial infarction” (priority 2006, published 2008).
Read-outs that look alike come from different tables or passages of the source.

Legend:
[1] = small amount, exogenously administered, hypoxic myocardium
[2] = test system: cultured myocardial cells; conditions: addition to cultured myocardial cells
[3] = test system: isolated muscle fibers; conditions: externally added
[4] = injected into isolated nonperfused hypothermic dog hearts
[5] = infused into left coronary artery, patients with coronary artery disease
[6] = after acute renal failure in rats
[7] = added to the perfusate
[8] = from a toxic injury
[9] = infusion; after hemorrhagic shock, severe burns, sepsis-peritonitis, post-ischemic hepatic failure, endotoxin shock
[10] = following prolonged ischemia, infusion
[11] = in man
[12] = after acute renal failure in mini-pigs
[13] = following normothermic ischemia, infusion of low dose
[14] = treatment after experimental acute myocardial ischemia

In the case of `Nc1ncnc2c1ncn2[C@@H]1O[C@H](COP(=O)(O)O)[C@@H](O)[C@H]1O` [AMP], the “ATP and total adenine nucleotide content” value [1] is listed as “not” and the ATP content [2] is listed as “neither adenosine nor AMP produced this effect”.

In the case of `Nc1ncnc2c1ncn2[C@@H]1O[C@H](COP(=O)(O)OP(=O)(O)OP(=O)(O)O)[C@@H](O)[C@H]1O` [ATP, adenosine 5′-triphosphate], the contraction [3] is given as “induced contraction”, the “ATP and total adenine nucleotide content” value [1] is given as “increased the ATP and total adenine nucleotide content” and the “nucleotide and phosphocreatine levels” value [4] is given as “improved nucleotide and phosphocreatine levels”. The ATP content [2] was “caused an increase in ATP content”.

For ATP-MgCl2, the “ornithine metabolism and tissue lactate level” value (during hemorrhagic shock, exogenously administered) is given as “can reverse the inhibition of ornithine metabolism and the change in tissue lactate level”, the tissue lactate production (infused) is given as “decreased tissue lactate production” and the myocardial oxygen consumption [5] is given as “reduction of myocardial oxygen consumption”. The “recovery of renal function” value [6] was “accelerate the recovery of renal function”, the “salvage of kidneys subjected to warm ischemia” value [7] was “could be salvaged” and the renal recovery [8] was “effective in hastening renal recovery”. The survival of animals [9] was “proved beneficial for the survival of animals”, the myocardial performance [10] was “can improve myocardial performance” and the “safety and hemodynamic response” value [11] was “has been demonstrated”. The “recovery of renal function” value [12] was “accelerate the recovery of renal function”, the myocardial recovery [13] was “improved myocardial recovery” and the “protection of the heart from ischemia” value [14] was “protects the heart from the adverse effects of ischemia”.

In the case of `Nc1ncnc2c1ncn2[C@@H]1O[C@H](COP(=O)(O)OP(=O)(O)O)[C@@H](O)[C@H]1O` [ADP], the “ATP and total adenine nucleotide content” value [1] is given as “not”.

In the case of `Nc1ncnc2c1ncn2[C@@H]1O[C@H](CO)[C@@H](O)[C@H]1O` [adenosine], the ATP content [2] is listed as “neither adenosine nor AMP produced this effect”.
